# Data reported in ChEMBL document CHEMBL3045206, “A facile synthesis of novel herbicidal 1-phenyl-piperazine-2,6-diones” (2005).
# What was measured:
# Assay type in all cases: functional
# [1] = test system: Tagetes; test: Herbicidal activity against Tagetes (marigold) plant at 1200 g/ha applied as spray during post-emergence after 2 weeks under green house conditions
# [2] = test system: Solanum lycopersicum; test: Herbicidal activity against Solanum lycopersicum (tomato) plant at 1200 g/ha applied as spray during post-emergence after 2 weeks under green house conditions
# [3] = test system: Abutilon theophrasti; test: Herbicidal activity against Abutilon theophrasti (velvetleaf) plant at 1200 g/ha applied as spray during post-emergence after 2 weeks under green house conditions
Compound,Activity [1] [%],Activity [2] [%],Activity [3] [%]
CC(C)OC(=O)c1cc(N2C(=O)CN(Cc3ccccc3)CC2=O)c(F)cc1Cl,0,10,0
C#CCOc1cc(N2C(=O)CN(C)CC2=O)c(F)cc1Cl,0,75,95
O=C1CN2CCCCC2C(=O)N1c1cc(Cl)c(Cl)cc1F (configuration not stated),0,75,90
CN1CC(=O)N(c2cc(OC3CCCC3)c(Cl)cc2F)C(=O)C1,0,0,75
CC(C)(C)N1CC(=O)N(c2cc(OC3CCCC3)c(Cl)cc2F)C(=O)C1,0,0,25
O=C1CN2CCCC2C(=O)N1c1cc(OC2CCCC2)c(Cl)cc1F (configuration not stated),0,0,50
O=C1CN2CCCCC2C(=O)N1c1cc(OC2CCCC2)c(Cl)cc1F (configuration not stated),10,60,90
COc1cc(N2C(=O)CN3CCCCC3C2=O)c(F)cc1Cl (configuration not stated),0,15,50
O=C1CN2CCCCC2C(=O)N1c1ccc(Cl)cc1F (configuration not stated),15,35,80
